Where two headings read alike, the source gives them in different places. Some results are limits rather than exact numbers.

The values below come from article PMC6017328, “Tetrasubstituted Imidazolium Salts as Potent Antiparasitic Agents against African and American Trypanosomiases” (Molecules : A Journal of Synthetic Chemistry and Natural …, 2018).

For data set [1] the following is noted: cited from earlier work.
Data set [2] relates to T. cruzi epimastigotes (CL Brener stain). The experiment in a line: T. cruzi culturing and evaluation of trypanocidal activity (resazurin). Type of data set: cell-based. The following applies: Trypanosoma cruzi; for EC90: epimastigotes, CL Brener, growth reduced by 90%. How it is done:
Activity was determined using 96-well plate assays. Cultures were diluted to 2.5 × 10^5 mL^−1, aliquoted in triplicate at a range of compound concentrations, and incubated for 4 days. Resazurin was added and the plates incubated for a further 3 days, then read in a Spectramax plate reader as outlined above.
A general note: Alamar Blue is a resazurin reagent that responds to reducing activity.

The subject of data set [3] is Bloodstream form T. brucei (strain 221). Nature of the data set: T. brucei culturing and evaluation of trypanocidal activity (resazurin). Type of data set: cell-based. The settings on record: Trypanosoma brucei; for EC50: concentration reducing parasite growth by 50%, triplicate; for EC90: concentration reducing parasite growth by 90%. How it is done: Bloodstream form T. brucei (strain 221) were grown as described previously. […] Logarithmically growing T. brucei were diluted to 2.5 × 10^4 mL^−1 and aliquoted into 96-well plates. Then, compounds were added at a range of concentrations and the plates incubated at 37 °C. Each compound was tested in triplicate. Resazurin was added after 48 h and the plates incubated for a further 16 h. The plates were then read in a Spectramax plate reader. Results were analyzed using GraphPad Prism.

In another data set the test system is L6 rat myoblast cells. Nature of the data set: Cytotoxic activity against rat skeletal myoblast L6 cells. Format: cell-based. The following applies: 144 h; cytotoxicity, L6 rat myoblasts, 6 days. How it is done:
Cytotoxicity was assessed using microtiter plates following a previously described protocol. Briefly, L6 cells were seeded at 1 × 10^4 mL^−1 in 200 μL of growth medium at different compound concentrations. The plates were incubated for 6 days at 37 °C and then 20 μL resazurin was added to each well. After a further 8 h incubation, fluorescence was determined using a Spectramax plate reader.

Data set [4] is described as follows: PAMPA-BBB assay (brain permeability). Type of data set: in vitro ADME, porcine. The following applies: for Papp: pig, PAMPA, PBS:EtOH 70:30, n=3 ± S.D. in Table S5, read-out: PAMPA-BBB permeability (Pe), experimental value; for CNS Prediction: predictive penetration in the CNS from PAMPA-BBB Pe.
Protocol: The in vitro permeability (Pe) of the tested compounds and fourteen reference drugs through a lipid extract of porcine brain membrane was assessed by using a parallel artificial membrane permeation assay. Commercial drugs and the target compounds were tested using a mixture of phosphate-buffered saline (PBS): EtOH 70:30. The assay was validated by comparing the experimental permeability with the reported values of the reference drugs.
The subject of data set [5] is T. cruzi epimastigotes (CL Brener stain). The following applies: read-out: EC50 (T. cruzi); comparison drug; cited from earlier work.
The subject of data set [6] is Bloodstream form T. brucei (strain 221). The following applies: read-out: EC50 (T. brucei); comparison drug; cited from earlier work.

`CN/C(=N/CCSCc1nc[nH]c1C)NC#N` [Cimetidine]: the “PAMPA-BBB permeability (Pe), bibliography value” in data set [1] is 0.0 10-6 cm s-1.
As usually defined, the EC50 is the concentration giving half of the maximal effect. As usually defined, the EC90 is the concentration at which the effect reaches the 90% level. Low values mean greater potency, high ones weaker potency. In data set [2], `Cc1ccc(-n2c[n+](CC(=O)[O-])c(Cc3ccccc3)c2-c2ccccc2)cc1` [Compound 1e] came in with an EC50 above 20000 nM and an EC90 above 20000 nM. Besides, in data set [3], the response was half-maximal at 5260 ± 10 nM (EC50) and it took 6790 ± 90 nM to reach the 90% level (EC90). In the data set with L6 rat myoblast cells, this compound displayed an EC50 above 130000 nM. Besides, in data set [4] (according to the limits of Di et al., low Pe < 1.89, uncertain 5.16 > Pe 10^−6 cm s^−1 > 1.89), the “BBB permeation (in words)” value is recorded as “low BBB permeation”. In addition, in data set [4], the Papp stood at 1.6 ×10⁻⁶ cm/s and the “CNS Prediction” value is given as “CNS-”.
Turning to `COc1ccc(-n2c[n+](C(C)(C)C)c(Cc3ccc(C)cc3)c2-c2ccc(Cl)cc2)cc1` [Compound 1c], the EC50 in data set [2] was determined as 1720 ± 390 nM; in data set [3], 180 ± 10 nM; in the data set with L6 rat myoblast cells it was 9690 ± 580 nM. Moreover, the EC90 in data set [2] was 2980 ± 190 nM; in data set [3] it was 200 ± 10 nM. The Papp in data set [4] amounted to 2.6 ×10⁻⁶ cm/s. Further, the “CNS Prediction” value in data set [4] is “CNS+/-”.
As to `Cc1ccc(-n2c[n+](C(C)(C)C)c(Cc3ccccc3)c2-c2ccccc2)cc1` [Compound 1a], the EC50 in data set [2] stood at 1850 ± 290 nM; in data set [3], 180 ± 10 nM; with L6 rat myoblast cells, 33900 ± 3300 nM. In addition, the EC90 is 3410 ± 140 nM in data set [2] and 280 ± 70 nM in data set [3]. The Papp in data set [4] was 4.2 ×10⁻⁶ cm/s. The “CNS Prediction” value in data set [4] is recorded as “CNS+/-”.
For `CC1CS(=O)(=O)CCN1/N=C/c1ccc([N+](=O)[O-])o1` (stereo not shown) [nifurtimox], the half-maximal effective concentration (EC50) in data set [5] and in data set [6] was around 2000 nM in each case.
`CN1C(C(=O)Nc2ccccn2)=C(O)c2ccccc2S1(=O)=O` [Piroxicam, reference compound]: in data set [4], the Papp turned out to be 1.7 ± 0.03 ×10⁻⁶ cm/s.
In data set [2], `Cc1ccc(-n2c[n+](-c3ccc4ccccc4c3)c(Cc3ccccc3)c2-c2ccc(Cl)cc2)cc1` [Compound 1d] had a concentration for a half-maximal effect (EC50) of 540 ± 80 nM and a concentration for an effect of 90% (EC90) of 1000 ± 40 nM. Moreover, in data set [3], the EC50 worked out at 70 nM and the 90% effect level (EC90) was put at 90 nM. This compound gave an EC50 with L6 rat myoblast cells of 4090 ± 280 nM. In data set [4], the Papp is 2.4 ×10⁻⁶ cm/s and the “CNS Prediction” value is given as “CNS+/-”.
In data set [2], `COc1ccc(-n2c[n+](-c3ccc(OC)cc3)c(Cc3ccccc3)c2-c2ccc(C)cc2)cc1` [Compound 1b] came in with an EC50 of 440 ± 10 nM and an EC90 of 1290 ± 50 nM. In data set [3], this compound displayed an EC50 of 40 nM and an EC90 of 50 nM. In the data set with L6 rat myoblast cells, this compound had an EC50 of 4600 ± 380 nM. Further, in data set [4], the Papp was found to be 4.9 ×10⁻⁶ cm/s and the “CNS Prediction” value is reported as “CNS+/-”.
